Experimental data published in patent publication US20240050408A1, “USE OF MGLUR5 ANTAGONISTS FOR TREATING AMPHETAMINE ADDICTION” (NOVARTIS AG, priority 2020, published 2024).

Experiments:
Type in all cases: in vivo, human
[1] = test system: patients with Cocaine Use Disorder (CUD); experiment: Phase 2 trial: Clinical Global Impression (CGI) improvement; details: P<0.001
Protocol: (§1) This study was conducted in patients with CUD and consisted of about a 21-day screening period followed by a 7-day baseline period, a 98-day outpatient treatment period, and an end of study visit evaluation about 14 days after the last study drug administration ([…]. A). Study treatment was taken twice daily (separated by about 12-hour intervals) with food. For patients in the mavoglurant arm [mavoglurant (free form) provided as modified release formulation (e.g. in WO2014/199316)], an uptitration regimen was performed for 14 days (50 mg b.i.d. from Days 1 to 7 and 100 mg b.i.d from Days 8 to 14) and was followed by 200 mg b.i.d for 84 days.
The primary endpoint was the proportion of cocaine use days during the treatment period, assessed by timeline followback [TLFB] cocaine self-report report. The secondary endpoints included a weekly urine analysis for a log-transformed quantitative measure of cocaine metabolite benzoylecgonine (BE), safety assessments (clinical parameters, suicidal ideation, adverse events [AE] and serious adverse events [SAE] at every visit), and pre- and post-dose levels of mavoglurant in the plasma. Exploratory endpoints included Clinical Global Impression (CGI; 2 components: CGI-S [rated illness severity], CGI-I [rated change from baseline]).
Observer Reported Outcome: • 1. […]

[2] = test system: patients with Cocaine Use Disorder (CUD); experiment: Phase 2 trial: abstinence in the last weeks of treatment (TLFB and negative urine BE); details: self-report (TLFB) and negative urine BE; placebo 16.7%; P=0.040
Protocol: as §1
A subject was considered abstinent the last x weeks of treatment if they completed the 14-week treatment period and were abstinent the last x weeks (with x=1, 2, 3. . . . , 14).
A subject was considered abstinent the last x weeks of treatment if they completed the 14-week treatment period and were abstinent the last x weeks (with x=1, 2, 3. . . . , 14). […] Binary response variables based on abstinence were calculated.
This analysis was added in order to inform on abstinence rates as this is an important endpoint in Phase III CUD studies. Binary response variables based on abstinence were calculated.

[3] = test system: patients with Cocaine Use Disorder (CUD); experiment: Phase 2 trial: alcohol consumption by TLFB; details: difference vs placebo not statistically significant (P=0.072)
Protocol: as §1
Alcohol consumption was recorded by the subjects using TLFB. The number of drinks was recorded daily. […] The past consumption of alcohol was the proportion of alcohol over the 28 days preceding the screening visit, which was assessed retrospectively using the TLFB. […]
Patient Reported Outcome included: • 1. The TLFB cocaine: is a cocaine assessment method that obtains estimates of daily cocaine intake and has been evaluated with clinical and nonclinical populations. […] The TLFB alcohol: is a drinking assessment method that obtains estimates of daily drinking and has been evaluated with clinical and nonclinical populations. […]

[4] = test system: patients with Cocaine Use Disorder (CUD); experiment: Phase 2 trial: hair analysis; details: end of study vs baseline; compared to placebo
Protocol: Hair analysis was used as an adjunct to urine samples collection and helps document drug use history. Hair specimens were collected and at baseline and at the end of the study. Patients with hair shorter than 3 cm or bleached and/or dyed hair (proximal 4 cm) were excluded from this assessment. If only the tip of long hairs were bleached, samples were collected.
The quantitative measures were log-transformed and individual ratio between end of study and baseline was calculated and listed by treatment, subject and visit/time. The log-transformed data profiles over time were explored, compared between treatment groups and the relationship between cocaine and alcohol measures in hair, in urine and timeline follow-back was assessed.
Summary statistics were provided by treatment and visit/time. Heatmaps to visualize the trend in the log-transformed quantitative measures were created. To explore the relationship between the log-transformed quantitative measures of the compounds being assayed and the timeline follow-back cocaine and alcohol measures, scatterplots were created for the end of study results. […]
To ensure that the hair analysis quantitative parameters only had numerical values, censored values were imputed as follows • Values below the LLOQ were replaced by LLOQ/2. • Values above the ULOQ were replaced by ULOQ.

COC(=O)N1CC[C@@H]2[C@H]1CCC[C@@]2(O)C#Cc1cccc(C)c1 [mavoglurant, (-)-(3aR,4S,7aR)-4-Hydroxy-4-m-tolylethynyl-octahydro-indole-1-carboxylic acid methyl ester]
clinical improvement by CGI vs placebo (result in words) ([1]; CGI-I improvement from baseline): significantly enhanced clinical improvement | CGI 'very much' and 'much' improved, patients ([1]; Day 98, placebo 46.6%): 90.9% | proportion of patients with cocaine abstinence in the last 3 weeks of the study [2]: 41.4% | alcohol consumption by TLFB [3]: reduced alcohol consumption | hair analysis: cocaine and metabolite, change from baseline [4]: higher reductions from baseline as compared to placebo
